{"source": "patent US12416008B2", "about": "“Compositions and methods of use for small-molecule regulation of CRISPR-Cas9 activity using RNA aptamers” (priority 2019, dated 2025)", "molecules": {"B1": {"name": "agRNAs created by Liu et al.: agRNAs created by Liu et al., designed to regulate gene expression via CRISPRi; SEQ ID NO: 74 (nucleic acid)", "guide": "ATGATAAAGCTGCTGCAATAGTTTTAGAGCTAGAAATAGCAAGTTAAAATAAGGCTAGTCCGTTATCAACTTGAAAAAGTGGCACCGAGTCGGTGCCAGCAGCTTTATCATATACCACGCGAAAGCGCCTTGGCAGATGATAAAGTTTTTTT"}}, "key": {"[1]": {"target": "T1, Streptococcus pyogenes Cas9 (Streptococcus pyogenes serotype M1, UniProt Q99ZW2)", "T1 construct": "host or cells: E. coli BL21 (DE3) Rosetta", "T1 sequence (Q99ZW2 whole entry)": "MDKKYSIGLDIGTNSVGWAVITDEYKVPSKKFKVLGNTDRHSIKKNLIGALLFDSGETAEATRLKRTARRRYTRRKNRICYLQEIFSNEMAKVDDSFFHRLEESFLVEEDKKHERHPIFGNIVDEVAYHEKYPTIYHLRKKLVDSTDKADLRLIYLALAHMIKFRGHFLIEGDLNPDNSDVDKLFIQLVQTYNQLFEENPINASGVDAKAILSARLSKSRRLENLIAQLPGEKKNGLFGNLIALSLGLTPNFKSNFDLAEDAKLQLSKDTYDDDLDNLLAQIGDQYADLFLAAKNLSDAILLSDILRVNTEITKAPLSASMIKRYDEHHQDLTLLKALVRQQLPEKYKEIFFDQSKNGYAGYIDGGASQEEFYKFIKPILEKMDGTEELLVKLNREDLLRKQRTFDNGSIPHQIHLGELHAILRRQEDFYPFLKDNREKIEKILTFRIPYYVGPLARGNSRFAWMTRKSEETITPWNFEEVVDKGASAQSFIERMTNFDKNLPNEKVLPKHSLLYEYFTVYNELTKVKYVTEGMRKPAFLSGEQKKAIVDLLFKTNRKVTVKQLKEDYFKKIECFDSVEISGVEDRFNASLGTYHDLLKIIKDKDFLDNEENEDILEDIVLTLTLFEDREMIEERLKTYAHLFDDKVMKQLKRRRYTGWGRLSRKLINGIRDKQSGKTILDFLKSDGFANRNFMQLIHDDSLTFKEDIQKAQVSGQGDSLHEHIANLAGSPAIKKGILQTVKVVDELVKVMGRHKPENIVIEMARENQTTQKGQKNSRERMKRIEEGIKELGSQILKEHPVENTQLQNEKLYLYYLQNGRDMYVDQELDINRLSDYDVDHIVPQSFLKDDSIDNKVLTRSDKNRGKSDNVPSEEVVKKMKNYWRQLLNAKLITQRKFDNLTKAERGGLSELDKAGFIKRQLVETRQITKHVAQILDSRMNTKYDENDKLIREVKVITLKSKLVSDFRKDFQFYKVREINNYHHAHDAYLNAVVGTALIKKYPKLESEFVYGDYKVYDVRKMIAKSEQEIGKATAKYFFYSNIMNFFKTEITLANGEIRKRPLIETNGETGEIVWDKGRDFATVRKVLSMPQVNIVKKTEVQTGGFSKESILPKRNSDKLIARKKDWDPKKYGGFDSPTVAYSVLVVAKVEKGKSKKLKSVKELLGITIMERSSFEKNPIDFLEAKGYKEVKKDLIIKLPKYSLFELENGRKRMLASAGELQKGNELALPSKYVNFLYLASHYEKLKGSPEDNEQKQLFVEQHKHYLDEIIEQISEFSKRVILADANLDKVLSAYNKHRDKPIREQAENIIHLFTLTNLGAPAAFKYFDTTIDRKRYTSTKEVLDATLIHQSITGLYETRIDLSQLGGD", "assay": "electrophoretic mobility shift assay (EMSA) of Cas9 binding to gRNAs", "details": "presence or absence of 250 μM theophylline"}, "galK 1 site": {"tested_on": "galK 1 site", "assay": "red/white colony screen of editing efficiency at the galK 1 site (CREATE recombineering)", "type": "cell-based, E. coli MG1655", "details": "for Editing Efficiency 1 mM Theo: induced for 3 hours with 1 mM theophylline; for Editing Efficiency no Theo: no theophylline, 3 hours recovery", "method": "Candidates from this enriched library were analyzed to inform an improved library design. After three selection/counterselection steps, cells were plated on M63 selection medium^20 and 150 colonies were picked. Each isolated candidate was then transformed into unedited E. coli to screen for theophylline-responsive constructs using a red/white colony assay to quantify the percentage of edited bacteria. Colonies with an unedited galK site appear red whereas edited colonies appear white (FIG. 5). The percentage of white colonies is considered the editing efficiency. Gene editing was induced as previously described with or without adding theophylline and the editing efficiencies were compared.\nThe protocol established by Garst et al was mainly followed. LB containing kanamycin and chloramphenicol was inoculated with MGλ9 cells and grown overnight at 30° C. The stationary culture was diluted 100 fold in LB, containing chloramphenicol, kanamycin and 0.2% arabinose and grown to an OD600=0.4-0.6 in 25 mL LB. The culture was heat-shocked in a shaking waterbath at 42° C. for 15 minutes to induce expression of the lambda-red proteins from pSIM5. Then, the culture was washed in two volumes of ice-cold deionized water, resuspended in 500 μl deionized water and 50 μl of the cell suspension was electroporated with 200 ng of a CREATE plasmid that encodes gRNA and homology template. The transformants were recovered in 4 mL of LB, containing 0.2% arabinose and optionally 1 mM theophylline or 1 μM anhydrotetracycline (ATC), and shaken at 37° C. for 3 hours before plating on MacConkey Agar. To estimate the number of cfu, aliquots were plated on LB agar 1 hour after transformation.\nIn order to assess the frequency of gene editing, a red/white screen was used to visualize the introduction of a stop codon into the galK gene by CREATE. The original CREATE protocol was used for inducing gene editing and after 3 hours of recovery (with or without the agRNA ligand) a series of dilutions of the cultures were plated on MacConkey Agar plates containing 1% galactose. Bacterial colonies with a mutated galK* site appear white on the plates, whereas non-edited colonies appear red. The editing efficiency could be calculated by dividing the number of edited colonies over the total number of colonies. By comparing the editing efficiency in presence versus absence of the ligand, a dynamic range of the in vivo activity could be determined.\nWhen screening the enriched libraries for switchable constructs, the transformants were recovered in 4 mL of LB broth, a dilution series was plated for every construct and the experiment was only carried out once due to the large volume of colonies screened (˜250 in total). When the constructs A9 and GU19 were characterized in detail, triplica of the experiment were carried out."}, "galK1 site": {"tested_on": "galK1 site", "assay": "co-transformation of targeting gRNA plasmid with non-targeting gRNA plasmid (simulated library)"}, "[2]": {"details": "9:1 targeting:non-targeting mixture"}}, "note": "Marks after values point to notes of the source that are not given here."}
{"molecule": "A1: agRNA cassette GGGGGGCCTATTTT, SEQ ID NO: 8 (expressed or natural sequence)", "values": [{"measurement": "apparent binding affinity to the Cas9 protein", "setting": "[1]", "result": "the same apparent binding affinity to the Cas9 protein as the wild type gRNA, independent of theophylline"}, {"measurement": "Editing Efficiency 1 mM Theo", "setting": "galK 1 site", "result": 66, "unit": "%"}, {"measurement": "Editing Efficiency no Theo", "setting": "galK 1 site", "result": 0, "unit": "%"}]}
{"molecule": "GC18: agRNA cassette GATTGGCCGCAACC, SEQ ID NO: 68 (expressed or natural sequence)", "values": [{"measurement": "Editing Efficiency 1 mM Theo", "setting": "galK 1 site", "result": 48, "unit": "%"}, {"measurement": "Editing Efficiency no Theo", "setting": "galK 1 site", "result": 0, "unit": "%"}]}
{"molecule": "GC20: agRNA cassette GCAAGGCCAACACC, SEQ ID NO: 69 (expressed or natural sequence)", "values": [{"measurement": "Editing Efficiency 1 mM Theo", "setting": "galK 1 site", "result": 64, "unit": "%"}, {"measurement": "Editing Efficiency no Theo", "setting": "galK 1 site", "result": 0, "unit": "%"}]}
{"molecule": "GU1: agRNA cassette GACGGGCCTAATAT, SEQ ID NO: 34 (expressed or natural sequence)", "values": [{"measurement": "Editing Efficiency 1 mM Theo", "setting": "galK 1 site", "result": 0, "unit": "%"}, {"measurement": "Editing Efficiency no Theo", "setting": "galK 1 site", "result": 0, "unit": "%"}]}
{"molecule": "GU2: agRNA cassette GCGAGGCCTACTAT, SEQ ID NO: 35 (expressed or natural sequence)", "values": [{"measurement": "Editing Efficiency 1 mM Theo", "setting": "galK 1 site", "result": 0, "unit": "%"}, {"measurement": "Editing Efficiency no Theo", "setting": "galK 1 site", "result": 0, "unit": "%"}]}
{"molecule": "GU3: agRNA cassette GCAGGGCCTCATTT, SEQ ID NO: 36 (expressed or natural sequence)", "values": [{"measurement": "Editing Efficiency 1 mM Theo", "setting": "galK 1 site", "result": 0, "unit": "%"}, {"measurement": "Editing Efficiency no Theo", "setting": "galK 1 site", "result": 0, "unit": "%"}]}
{"molecule": "GU4: agRNA cassette GATTGGCCATACAT, SEQ ID NO: 37 (expressed or natural sequence)", "values": [{"measurement": "Editing Efficiency 1 mM Theo", "setting": "galK 1 site", "result": 0, "unit": "%"}, {"measurement": "Editing Efficiency no Theo", "setting": "galK 1 site", "result": 0, "unit": "%"}]}
{"molecule": "GU5: agRNA cassette GGTTGGCCTAATAT, SEQ ID NO: 38 (expressed or natural sequence)", "values": [{"measurement": "Editing Efficiency 1 mM Theo", "setting": "galK 1 site", "result": 2, "unit": "%"}, {"measurement": "Editing Efficiency no Theo", "setting": "galK 1 site", "result": 0, "unit": "%"}]}
{"molecule": "GU6: agRNA cassette GGACGGCCAAGCAT, SEQ ID NO: 39 (expressed or natural sequence)", "values": [{"measurement": "Editing Efficiency 1 mM Theo", "setting": "galK 1 site", "result": 1, "unit": "%"}, {"measurement": "Editing Efficiency no Theo", "setting": "galK 1 site", "result": 0, "unit": "%"}]}
{"molecule": "GU8: agRNA cassette GGCAGGCCTCTTCT, SEQ ID NO: 40 (expressed or natural sequence)", "values": [{"measurement": "Editing Efficiency 1 mM Theo", "setting": "galK 1 site", "result": 1, "unit": "%"}, {"measurement": "Editing Efficiency no Theo", "setting": "galK 1 site", "result": 0, "unit": "%"}]}
{"molecule": "GU9: agRNA cassette GTTCGGCCCCGACT, SEQ ID NO: 41 (expressed or natural sequence)", "values": [{"measurement": "Editing Efficiency 1 mM Theo", "setting": "galK 1 site", "result": 0, "unit": "%"}, {"measurement": "Editing Efficiency no Theo", "setting": "galK 1 site", "result": 0, "unit": "%"}]}
{"molecule": "GU10: agRNA cassette GTACGGCCCATAAT, SEQ ID NO: 42 (expressed or natural sequence)", "values": [{"measurement": "Editing Efficiency 1 mM Theo", "setting": "galK 1 site", "result": 0, "unit": "%"}, {"measurement": "Editing Efficiency no Theo", "setting": "galK 1 site", "result": 0, "unit": "%"}]}
{"molecule": "GU11: agRNA cassette GTATGGCCTCGGAT, SEQ ID NO: 43 (expressed or natural sequence)", "values": [{"measurement": "Editing Efficiency 1 mM Theo", "setting": "galK 1 site", "result": 0, "unit": "%"}, {"measurement": "Editing Efficiency no Theo", "setting": "galK 1 site", "result": 0, "unit": "%"}]}
{"molecule": "GU12: agRNA cassette GCCGGGCCTTTTTT, SEQ ID NO: 44 (expressed or natural sequence)", "values": [{"measurement": "Editing Efficiency 1 mM Theo", "setting": "galK 1 site", "result": 7, "unit": "%"}, {"measurement": "Editing Efficiency no Theo", "setting": "galK 1 site", "result": 0, "unit": "%"}]}
{"molecule": "GU13: agRNA cassette GGCCGGCCAAGCAT, SEQ ID NO: 45 (expressed or natural sequence)", "values": [{"measurement": "Editing Efficiency 1 mM Theo", "setting": "galK 1 site", "result": 6, "unit": "%"}, {"measurement": "Editing Efficiency no Theo", "setting": "galK 1 site", "result": 0, "unit": "%"}]}
{"molecule": "GU14: agRNA cassette GACTGGCCTATAAT, SEQ ID NO: 46 (expressed or natural sequence)", "values": [{"measurement": "Editing Efficiency 1 mM Theo", "setting": "galK 1 site", "result": 2, "unit": "%"}, {"measurement": "Editing Efficiency no Theo", "setting": "galK 1 site", "result": 0, "unit": "%"}]}
{"molecule": "GU15: agRNA cassette GGACGGCCTACAAT, SEQ ID NO: 47 (expressed or natural sequence)", "values": [{"measurement": "Editing Efficiency 1 mM Theo", "setting": "galK 1 site", "result": 11, "unit": "%"}, {"measurement": "Editing Efficiency no Theo", "setting": "galK 1 site", "result": 0, "unit": "%"}]}
{"molecule": "GU16: agRNA cassette GGGAGGCCAGCGAT, SEQ ID NO: 48 (expressed or natural sequence)", "values": [{"measurement": "Editing Efficiency 1 mM Theo", "setting": "galK 1 site", "result": 0, "unit": "%"}, {"measurement": "Editing Efficiency no Theo", "setting": "galK 1 site", "result": 1, "unit": "%"}]}
{"molecule": "GU17: agRNA cassette GTAAGGCCGCCGAT, SEQ ID NO: 49 (expressed or natural sequence)", "values": [{"measurement": "Editing Efficiency 1 mM Theo", "setting": "galK 1 site", "result": 0, "unit": "%"}, {"measurement": "Editing Efficiency no Theo", "setting": "galK 1 site", "result": 0, "unit": "%"}]}
{"molecule": "GU18: agRNA cassette GATTGGCCTACGGT, SEQ ID NO: 50 (expressed or natural sequence)", "values": [{"measurement": "Editing Efficiency 1 mM Theo", "setting": "galK 1 site", "result": 1, "unit": "%"}, {"measurement": "Editing Efficiency no Theo", "setting": "galK 1 site", "result": 0, "unit": "%"}]}
{"molecule": "RG53: agRNA cassette AGTGAGCTAAAAAT, SEQ ID NO: 3 (expressed or natural sequence)", "values": [{"measurement": "Editing Efficiency 1 mM Theo", "setting": "galK 1 site", "result": 22, "unit": "%"}, {"measurement": "Editing Efficiency no Theo", "setting": "galK 1 site", "result": 0, "unit": "%"}]}
{"molecule": "sgRNA: wild-type single guide RNA; cassette AGAGCTAGCAAGTT, SEQ ID NO: 1 (chemistry not given here)", "values": [{"measurement": "plated bacteria carrying the non-targeting plasmid", "setting": "galK1 site; [2]", "result": 84.8, "unit": "%"}, {"measurement": "plated bacteria expected to carry the targeting CREATE plasmid", "setting": "galK1 site; [2]", "result": 15.2, "unit": "%"}, {"measurement": "# of unedited colonies carrying non-targeting gRNA plasmid", "setting": "galK1 site; 16 unedited colonies picked, 20 ng non-targeting + 180 ng targeting plasmid, 1 mM theophylline", "result": "16/16"}, {"measurement": "enrichment of the non-targeting plasmids", "setting": "galK1 site; listed as wild type gRNA", "result": "8.6±0.1", "unit": "fold"}, {"measurement": "enrichment of the non-targeting plasmids", "setting": "galK1 site; listed as wt sgRNA", "result": "~8.5", "unit": "fold"}, {"measurement": "percentage of edited cells", "setting": "galK1 site; plasmid mixture 90% targeting galK1, 10% non-targeting (eGFP) gRNA, listed as wild type gRNA", "result": 14, "unit": "%"}, {"measurement": "percentage of edited cells", "setting": "galK1 site; plasmid mixture 90% targeting galK1, 10% non-targeting (eGFP) gRNA, listed as wt sgRNA", "result": 13.5, "unit": "%"}, {"measurement": "percentage of edited cells", "setting": "galK1 site; transformed exclusively with the targeting plasmid, listed as wild type gRNA", "result": 89, "unit": "%"}, {"measurement": "percentage of edited cells", "setting": "galK1 site; transformed exclusively with the targeting plasmid, listed as wt sgRNA", "result": 88.9, "unit": "%"}, {"measurement": "Editing Efficiency 1 mM Theo", "setting": "galK 1 site", "result": 89, "unit": "%**"}, {"measurement": "Editing Efficiency no Theo", "setting": "galK 1 site", "result": 85, "unit": "%**"}]}
{"molecule": "B1", "values": [{"measurement": "gene editing activity and ligand dependence (in words)", "setting": "galK 1 site; with and without aptamer ligand", "result": "lead to gene editing with and without the aptamer-ligand"}]}
